{
  "source": "paper PMC5218480",
  "about": "(PLoS ONE, 2017)",
  "tested_on": "MV-4-11 cells",
  "test": "Gene expression microarray analysis (Affymetrix PrimeView) and GSEA",
  "assay_type": "cell-based, human",
  "design": "RFU PODN (11730768_x_at) / Fold change /veh PODN (11730768_x_at) / RFU LINC00158 (11744669_a_at) / Fold change /veh LINC00158 (11744669_a_at) / RFU DUSP10 (11751237_a_at) / Fold change /veh DUSP10 (11751237_a_at) / RFU ID3 (11757404_x_at) / Fold change /veh ID3 (11757404_x_at) / RFU PLEKHG5 (11737974_s_at) / Fold change /veh PLEKHG5 (11737974_s_at) / RFU LRRC4B (11730491_at) / Fold change /veh LRRC4B (11730491_at) / RFU GIMAP4 (11747438_a_at) / Fold change /veh GIMAP4 (11747438_a_at) / RFU KRT8 (11758183_x_at) / Fold change /veh KRT8 (11758183_x_at) / RFU CNN1 (11734310_a_at) / Fold change /veh CNN1 (11734310_a_at) / RFU VPS37D (11726825_at) / Fold change /veh VPS37D (11726825_at) / RFU C10orf10 (11716522_x_at) / Fold change /veh C10orf10 (11716522_x_at) / RFU KIR2DL2 /// KIR2DL4 /// KIR2DL5A /// KIR2DL5B /// KIR2DS1 /// KIR2DS2 /// KIR2DS3 /// KIR2DS4 /// KIR3DL3 /// KIR3DL3 /// KIR3DS1 (11738374_at) / Fold change /veh KIR2DL2 /// KIR2DL4 /// KIR2DL5A /// KIR2DL5B /// KIR2DS1 /// KIR2DS2 /// KIR2DS3 /// KIR2DS4 /// KIR3DL3 /// KIR3DL3 /// KIR3DS1 (11738374_at) / RFU C1QL1 (11718748_at) / Fold change /veh C1QL1 (11718748_at) / RFU TMPRSS4 (11747572_a_at) / Fold change /veh TMPRSS4 (11747572_a_at) / RFU HAMP (11756126_x_at) / Fold change /veh HAMP (11756126_x_at) / RFU RNFT2 (11725882_a_at) / Fold change /veh RNFT2 (11725882_a_at) / RFU NR4A2 (11747474_a_at) / Fold change /veh NR4A2 (11747474_a_at) / RFU ABCC12 (11746883_a_at) / Fold change /veh ABCC12 (11746883_a_at) / RFU TMEM136 (11760407_x_at) / Fold change /veh TMEM136 (11760407_x_at) / RFU CLDN22 /// WWC2 (11732394_at) / Fold change /veh CLDN22 /// WWC2 (11732394_at) / RFU HLA-DPB1 (11760878_x_at) / Fold change /veh HLA-DPB1 (11760878_x_at) / RFU SPINT1 (11716480_a_at) / Fold change /veh SPINT1 (11716480_a_at) / RFU GAP43 (11754022_s_at) / Fold change /veh GAP43 (11754022_s_at) / RFU A4GNT (11735810_at) / Fold change /veh A4GNT (11735810_at) / RFU PRB3 (11715151_x_at) / Fold change /veh PRB3 (11715151_x_at) / RFU TUBB4B (11761932_at) / Fold change /veh TUBB4B (11761932_at) / RFU CAPN14 (11732068_a_at) / Fold change /veh CAPN14 (11732068_a_at) / RFU TMCC2 (11721928_a_at) / Fold change /veh TMCC2 (11721928_a_at) / RFU IRGQ (11745062_a_at) / Fold change /veh IRGQ (11745062_a_at) / RFU FAM174B (11720279_a_at) / Fold change /veh FAM174B (11720279_a_at) / RFU TMPRSS4 (11748680_a_at) / Fold change /veh TMPRSS4 (11748680_a_at) / RFU FAM212B (11763350_a_at) / Fold change /veh FAM212B (11763350_a_at) / RFU PLEKHG5 (11743358_a_at) / Fold change /veh PLEKHG5 (11743358_a_at) / RFU ZSCAN30 (11745921_a_at) / Fold change /veh ZSCAN30 (11745921_a_at) / RFU CMKLR1 (11741424_a_at) / Fold change /veh CMKLR1 (11741424_a_at) / RFU LOC101060620 /// MAPK8IP1 (11723275_at) / Fold change /veh LOC101060620 /// MAPK8IP1 (11723275_at) / RFU SPTSSB (11747773_x_at) / Fold change /veh SPTSSB (11747773_x_at) / RFU PRSS12 (11739890_at) / Fold change /veh PRSS12 (11739890_at) / RFU BIN1 (11741810_x_at) / Fold change /veh BIN1 (11741810_x_at) / RFU WNT11 (11732464_a_at) / Fold change /veh WNT11 (11732464_a_at) / RFU C10orf10 (11716521_a_at) / Fold change /veh C10orf10 (11716521_a_at) / RFU C5orf56 (11738089_at) / Fold change /veh C5orf56 (11738089_at) / RFU CYB561 (11721691_x_at) / Fold change /veh CYB561 (11721691_x_at) / RFU ANKRD19P (11752326_a_at) / Fold change /veh ANKRD19P (11752326_a_at) / RFU OR2T12 /// OR2T33 /// OR2T8 (11738714_s_at) / Fold change /veh OR2T12 /// OR2T33 /// OR2T8 (11738714_s_at) / RFU VCAN (11748164_a_at) / Fold change /veh VCAN (11748164_a_at) / RFU JSRP1 (11732532_at) / Fold change /veh JSRP1 (11732532_at) / RFU KRTAP10-11 (11738290_x_at) / Fold change /veh KRTAP10-11 (11738290_x_at) / RFU MYO3A (11730013_a_at) / Fold change /veh MYO3A (11730013_a_at) / RFU EBF3 (11725865_a_at) / Fold change /veh EBF3 (11725865_a_at) / RFU CAMK2N1 (11719241_x_at) / Fold change /veh CAMK2N1 (11719241_x_at) / RFU C5orf56 (11738088_a_at) / Fold change /veh C5orf56 (11738088_a_at) / RFU OLFML3 (11715873_a_at) / Fold change /veh OLFML3 (11715873_a_at) / RFU LOC100653217 /// NTM (11731650_a_at) / Fold change /veh LOC100653217 /// NTM (11731650_a_at) / RFU MAPK11 (11762145_a_at) / Fold change /veh MAPK11 (11762145_a_at) / RFU FIZ1 (11724087_x_at) / Fold change /veh FIZ1 (11724087_x_at) / RFU OASL (11726364_x_at) / Fold change /veh OASL (11726364_x_at) / RFU SOX15 (11748057_x_at) / Fold change /veh SOX15 (11748057_x_at) / RFU CD79A (11719716_a_at) / Fold change /veh CD79A (11719716_a_at) / RFU HIST1H1D (11736915_at) / Fold change /veh HIST1H1D (11736915_at) / RFU CASKIN2 (11723855_a_at) / Fold change /veh CASKIN2 (11723855_a_at) / RFU LOC730098 (11760151_x_at) / Fold change /veh LOC730098 (11760151_x_at) / RFU OR4N2 (11742367_at) / Fold change /veh OR4N2 (11742367_at) / RFU PRRT2 (11749266_a_at) / Fold change /veh PRRT2 (11749266_a_at) / RFU SNX32 (11753110_a_at) / Fold change /veh SNX32 (11753110_a_at) / RFU CDHR5 (11726645_a_at) / Fold change /veh CDHR5 (11726645_a_at) / RFU RCAN1 (11760418_a_at) / Fold change /veh RCAN1 (11760418_a_at) / RFU FAM167A (11723789_a_at) / Fold change /veh FAM167A (11723789_a_at) / RFU FAM26E (11764081_at) / Fold change /veh FAM26E (11764081_at) / RFU ISYNA1 (11749810_s_at) / Fold change /veh ISYNA1 (11749810_s_at) / RFU ACY1 (11761880_at) / Fold change /veh ACY1 (11761880_at) / RFU 11764098_at / Fold change /veh 11764098_at / RFU SAMD14 (11745864_x_at) / Fold change /veh SAMD14 (11745864_x_at) / RFU NPB (11741838_a_at) / Fold change /veh NPB (11741838_a_at) / RFU TMPRSS6 (11731388_a_at) / Fold change /veh TMPRSS6 (11731388_a_at) / RFU KRTAP10-2 (11738614_at) / Fold change /veh KRTAP10-2 (11738614_at) / RFU ARHGAP8 /// PRR5-ARHGAP8 (11727945_x_at) / Fold change /veh ARHGAP8 /// PRR5-ARHGAP8 (11727945_x_at) / RFU KRTAP5-7 /// NADSYN1 (11734609_at) / Fold change /veh KRTAP5-7 /// NADSYN1 (11734609_at) / RFU RASL12 (11751679_a_at) / Fold change /veh RASL12 (11751679_a_at) / RFU CDKN2B (11736163_a_at) / Fold change /veh CDKN2B (11736163_a_at) / RFU PRF1 (11729649_at) / Fold change /veh PRF1 (11729649_at) / RFU, ZNF638 /// ZNF638-IT1 / Fold change vs veh, ZNF638 /// ZNF638-IT1 / RFU, PANK3 / Fold change vs veh, PANK3 / RFU, SH3YL1 / Fold change vs veh, SH3YL1 / RFU, ZEB2 / Fold change vs veh, ZEB2 / RFU, NRIP1 / Fold change vs veh, NRIP1 / RFU, PTTG1IP / Fold change vs veh, PTTG1IP / RFU, CAPN2 / Fold change vs veh, CAPN2 / RFU, MED14 / Fold change vs veh, MED14 / RFU, SNORA58 / Fold change vs veh, SNORA58 / RFU, C1orf63 / Fold change vs veh, C1orf63 / RFU, LRRFIP1 / Fold change vs veh, LRRFIP1 / RFU, NDUFAF7 / Fold change vs veh, NDUFAF7 / RFU, SLC12A2 / Fold change vs veh, SLC12A2 / RFU, IBTK / Fold change vs veh, IBTK / RFU, ESF1 / Fold change vs veh, ESF1 / Fold change vs veh, TMEM50B / RFU, TAOK1 / Fold change vs veh, TAOK1 / RFU, ACBD3 / Fold change vs veh, ACBD3 / RFU, TMA16 / Fold change vs veh, TMA16 / RFU, RWDD3 / Fold change vs veh, RWDD3 / RFU, BCAT1 / Fold change vs veh, BCAT1 / RFU, EDEM3 / Fold change vs veh, EDEM3 / RFU, TMEM33 / Fold change vs veh, TMEM33 / RFU, WDR75 / Fold change vs veh, WDR75 / RFU, AHCTF1 / Fold change vs veh, AHCTF1 / RFU, TFRC / Fold change vs veh, TFRC / RFU, ZDHHC17 / Fold change vs veh, ZDHHC17 / RFU, NOM1 / Fold change vs veh, NOM1 / RFU, ARL8B / Fold change vs veh, ARL8B / RFU, ZBTB11 / Fold change vs veh, ZBTB11 / RFU, TAMM41 / Fold change vs veh, TAMM41 / RFU, KIAA1704 /// LOC100996395 / Fold change vs veh, KIAA1704 /// LOC100996395 / RFU, ING1 / Fold change vs veh, ING1 / RFU, TRMT61B / Fold change vs veh, TRMT61B / RFU, FUBP3 / Fold change vs veh, FUBP3 / RFU, TP53 / Fold change vs veh, TP53 / RFU, TNKS2 / Fold change vs veh, TNKS2 / RFU, ZFP14 / Fold change vs veh, ZFP14 / RFU, ACTR2 / Fold change vs veh, ACTR2 / RFU, PPP3R1 / Fold change vs veh, PPP3R1 / RFU, PIK3R1 / Fold change vs veh, PIK3R1 / RFU, HNRNPA1 / Fold change vs veh, HNRNPA1 / RFU, RNF170 / Fold change vs veh, RNF170 / RFU, ZNF28 / Fold change vs veh, ZNF28 / RFU, RNGTT / Fold change vs veh, RNGTT / RFU, OGT / Fold change vs veh, OGT / RFU, BRD1 / Fold change vs veh, BRD1 / RFU, MARS / Fold change vs veh, MARS / RFU, ZNF655 / Fold change vs veh, ZNF655 / RFU, FAHD1 / Fold change vs veh, FAHD1 / RFU, BDP1 / Fold change vs veh, BDP1 / RFU, LRRCC1 / Fold change vs veh, LRRCC1 / RFU, ARID1A / Fold change vs veh, ARID1A / RFU, ZNF146 / Fold change vs veh, ZNF146 / RFU, ZNF330 / Fold change vs veh, ZNF330 / RFU, GPN3 / Fold change vs veh, GPN3 / RFU, C9orf123 / Fold change vs veh, C9orf123 / RFU, N4BP2L2 / Fold change vs veh, N4BP2L2 / RFU, ARFIP1 / Fold change vs veh, ARFIP1 / RFU, FAM179B / Fold change vs veh, FAM179B / RFU, BCL10 / Fold change vs veh, BCL10 / RFU, UHRF1BP1L / Fold change vs veh, UHRF1BP1L / RFU, BET1 / Fold change vs veh, BET1 / RFU, CNOT2 / Fold change vs veh, CNOT2 / RFU, ZNF268 / Fold change vs veh, ZNF268 / Fold change vs veh, ZNF507 / RFU, DGCR2 / Fold change vs veh, DGCR2 / RFU, WDSUB1 / Fold change vs veh, WDSUB1 / Fold change vs veh, HSP90B1 /// MIR3652 / RFU, ADSS / Fold change vs veh, ADSS / RFU, GK / Fold change vs veh, GK / RFU, ZNF148 / Fold change vs veh, ZNF148 / RFU, TAF9 / Fold change vs veh, TAF9 / RFU, SLC1A5 / Fold change vs veh, SLC1A5 / RFU, SLMO2 / Fold change vs veh, SLMO2 / RFU, ABCC4 / Fold change vs veh, ABCC4 / RFU, LOC101060439 /// RAP1B / Fold change vs veh, LOC101060439 /// RAP1B / RFU, RFX7 / Fold change vs veh, RFX7 / RFU, GTPBP10 / Fold change vs veh, GTPBP10 / RFU, CNEP1R1 / Fold change vs veh, CNEP1R1 / RFU, BIVM-ERCC5 /// ERCC5 / Fold change vs veh, BIVM-ERCC5 /// ERCC5 / RFU, ILF3 / Fold change vs veh, ILF3 / RFU 11762660_at / Fold change /veh 11762660_at / RFU VCAN (11757783_s_at) / Fold change /veh VCAN (11757783_s_at) / RFU DDX43 (11728927_at) / Fold change /veh DDX43 (11728927_at) / RFU KRT8 (11758188_x_at) / Fold change /veh KRT8 (11758188_x_at) / RFU NKD1 (11759106_at) / Fold change /veh NKD1 (11759106_at) / RFU SRD5A1 (11742802_a_at) / Fold change /veh SRD5A1 (11742802_a_at) / RFU TPSAB1 /// TPSB2 (11721975_s_at) / Fold change /veh TPSAB1 /// TPSB2 (11721975_s_at) / RFU GSTM3 (11746129_a_at) / Fold change /veh GSTM3 (11746129_a_at) / RFU IL23R (11737362_x_at) / Fold change /veh IL23R (11737362_x_at) / RFU TMEM51 (11727254_a_at) / Fold change /veh TMEM51 (11727254_a_at) / RFU PIWIL2 (11732686_x_at) / Fold change /veh PIWIL2 (11732686_x_at) / RFU ORM1 (11744905_x_at) / Fold change /veh ORM1 (11744905_x_at) / RFU CCDC152 (11743942_at) / Fold change /veh CCDC152 (11743942_at) / RFU ECM1 (11717891_a_at) / Fold change /veh ECM1 (11717891_a_at) / RFU IL23R (11748794_a_at) / Fold change /veh IL23R (11748794_a_at) / RFU TNFAIP8L3 (11732012_x_at) / Fold change /veh TNFAIP8L3 (11732012_x_at) / RFU MBOAT4 (11741988_at) / Fold change /veh MBOAT4 (11741988_at) / RFU 11764193_at / Fold change /veh 11764193_at / RFU TMEM53 (11763286_at) / Fold change /veh TMEM53 (11763286_at) / RFU MAGEB2 (11727129_at) / Fold change /veh MAGEB2 (11727129_at) / RFU TMEM200A (11744735_a_at) / Fold change /veh TMEM200A (11744735_a_at) / RFU CCDC152 (11751479_a_at) / Fold change /veh CCDC152 (11751479_a_at) / RFU FAM211A (11726209_a_at) / Fold change /veh FAM211A (11726209_a_at) / RFU RGS16 (11746705_a_at) / Fold change /veh RGS16 (11746705_a_at) / RFU VCAN (11755009_s_at) / Fold change /veh VCAN (11755009_s_at) / RFU RHOB (11743442_s_at) / Fold change /veh RHOB (11743442_s_at) / RFU RGS16 (11720943_a_at) / Fold change /veh RGS16 (11720943_a_at) / RFU RGS16 (11720944_at) / Fold change /veh RGS16 (11720944_at) / RFU, VPS4B / Fold change vs veh, VPS4B / RFU, CREB1 / Fold change vs veh, CREB1 / RFU, DNAJC13 / Fold change vs veh, DNAJC13 / RFU, GNAQ / Fold change vs veh, GNAQ / RFU, CDK5R1 / Fold change vs veh, CDK5R1 / RFU, ZRANB3 / Fold change vs veh, ZRANB3 / RFU, CUL4A / Fold change vs veh, CUL4A / RFU, CCNY / Fold change vs veh, CCNY / RFU, UFL1 / Fold change vs veh, UFL1 / RFU, COG3 / Fold change vs veh, COG3 / RFU, DIAPH2 / Fold change vs veh, DIAPH2 / RFU, SKA2 / Fold change vs veh, SKA2 / RFU, AFF3 / Fold change vs veh, AFF3 / RFU, LMF1 / Fold change vs veh, LMF1 / RFU, IPO11 / Fold change vs veh, IPO11 / RFU, DFFB / Fold change vs veh, DFFB / RFU, FOXP1 / Fold change vs veh, FOXP1 / RFU, CARD8 / Fold change vs veh, CARD8 / RFU, STRN3 / Fold change vs veh, STRN3 / RFU, ADK / Fold change vs veh, ADK / RFU, RASSF2 / Fold change vs veh, RASSF2 / RFU, WIPF1 / Fold change vs veh, WIPF1 / RFU, LARP1B / Fold change vs veh, LARP1B / RFU, RASA1 / Fold change vs veh, RASA1 / RFU, RB1 / Fold change vs veh, RB1 / RFU, PPFIA1 / Fold change vs veh, PPFIA1 / RFU, MAT2A / Fold change vs veh, MAT2A / RFU, CCT5 / Fold change vs veh, CCT5 / RFU, WDR92 / Fold change vs veh, WDR92 / RFU, CUX1 / Fold change vs veh, CUX1 / RFU, TTC7A / Fold change vs veh, TTC7A / RFU, TMEM135 / Fold change vs veh, TMEM135 / RFU, DEPTOR / Fold change vs veh, DEPTOR / RFU, CPM / Fold change vs veh, CPM / RFU, DNAJB6 / Fold change vs veh, DNAJB6 / RFU, CACNA2D3 / Fold change vs veh, CACNA2D3 / RFU, DTX4 / Fold change vs veh, DTX4 / RFU, TFCP2 / Fold change vs veh, TFCP2 / RFU, GMCL1 /// GMCL1P1 / Fold change vs veh, GMCL1 /// GMCL1P1 / RFU, AEBP2 / Fold change vs veh, AEBP2 / RFU, SNHG1 /// SNORD22 /// SNORD25 /// SNORD26 /// SNORD27 /// SNORD28 /// SNORD29 /// SNORD31 / Fold change vs veh, SNHG1 /// SNORD22 /// SNORD25 /// SNORD26 /// SNORD27 /// SNORD28 /// SNORD29 /// SNORD31 / Fold change (Aza/veh), C12orf56 (ProbeSet 11735607_a_at) / Fold change (ACY-1035/veh), C12orf56 (ProbeSet 11735607_a_at) / Fold change (Aza/veh), FGFR1OP (ProbeSet 11751329_s_at) / Fold change (ACY-1035/veh), FGFR1OP (ProbeSet 11751329_s_at) / Fold change (Aza/veh), VPS36 (ProbeSet 11739960_a_at) / Fold change (ACY-1035/veh), VPS36 (ProbeSet 11739960_a_at) / RFU SYPL1 (11715823_x_at) / Fold change /veh SYPL1 (11715823_x_at) / RFU IGFBP7 (11715501_s_at) / Fold change /veh IGFBP7 (11715501_s_at) / RFU REEP3 (11722064_at) / Fold change /veh REEP3 (11722064_at) / RFU IGLL1 (11728026_x_at) / Fold change /veh IGLL1 (11728026_x_at): dose or concentration left out as unconfirmed",
  "conditions": "MV-4-11 cells, 48 hours",
  "data": [
    {"smiles": "Nc1ncn([C@@H]2O[C@H](CO)[C@@H](O)[C@H]2O)c(=O)n1", "note": "[azacitidine]", "values": [
      {"measurement": "RFU ECM1 (11717891_a_at)", "result": 24.53, "unit": "RFU"}
    ]}
  ]
}
